Laboratory results published in patent US20070087985A1, “MRCK-related compositions and methods” (priority 2005, published 2007).

Experiments:
Assay type in all cases: cell-based
[1] = tested on: starved wound edge NIH-3T3 cells; test: MTOC reorientation in wounded starved monolayers (fixed, stained cells); conditions: for effect on MTOC reorientation induced by LPA: pre-treatment with 0.5 μM CD or 50 μM BB; for MTOC reorientation in starved cells without LPA: microinjected protein or expressed DNA, no other treatment
Experimental: (§1) NIH-3T3 cells were cultured in DMEM with 10% calf serum, serum starved for 2 days and wounded as previous described (9, 21).
(§2) Plasmid DNA was purified using Plasmid Midi Kit (Qiagen, Valencia, Calif.) and was microinjected into nuclei as described (38). Expression was detectable within 1-2 hr. Proteins were microinjected as described (9, 39). DIC mAb 74.1 (from K. Pfister, U. of Virginia), was microinjected at 10 mg/ml and Cdc42, Rac and Rho GTPases were microinjected at 1 mg/ml. For double microinjections, 100 μg/ml DNA (MRCK-WT or MRCK-CPC) was injected into the nucleus with 2 mg/ml fluorescein-ovalbumin. After 30 min, labelled cells were injected with DIC mAb, L61Cdc42 or human IgG as a control.
(§3) Phase contrast and fluorescence images of cells stained for pericentrin or γ-tubulin, β-catenin, DNA, expression tag, MTs. (Tyr tubulin) or injection marker were acquired as described (38, 39). MTOC reorientation was determined as previously described (39). For analysis of nucleus and MTOC position, images were pseudo-colored, aligned with the wound parallel to the X axis and then combined using Metamorph software. The cell perimeter was drawn over the cell-cell contacts (β-catenin, expression tags or injection markers) and the wound edge (Tyr-tubulin or injection markers) and the cell centroid was calculated using Metamorph software. Similarly, the nuclear perimeter was drawn and the centroid of the nucleus calculated. A vector representing the distances from the centroid of the nucleus and the MTOC (γ-tubulin or pericentrin staining and MT focus) to the cell centroid was drawn and resolved into X and Y coordinates (parallel and perpendicular to the leading edge, respectively). To allow comparison between cells, measurements were normalized to cell size. […] At least 30 cells from 3 independent experiments were analysed for each condition and error bars in plots are SEM.

[2] = tested on: wound edge NIH-3T3 cells; test: Actin distribution (phalloidin staining)
Experimental: Actin retrograde flow is involved in nuclear movement. A. Region of 3T3-GFPTub cell used for kymograph in B. B. Kymograph showing retrograde movement of MTs and nucleus before and after 2 μM LPA addition. […] The nucleus is the broad dark band at the bottom of the kymograph and begins moving rearward in concert with MTs. C, D. Wound edge starved NIH-3T3 cells were microinjected with R-actin and time lapse images of actin speckles were acquired before (C) or after (D) addition of 2 μM LPA. Kymographs of a region of the lamella are shown (separate cells are shown in C and D). Actin speckles (arrowheads) remain stationary in the absence of LPA (C) but move away from the leading edge upon LPA addition (D). Note that the nucleus remains stationary in the absence of LPA (C) but moves rearward at the same rate as actin speckles after LPA addition (D). E. Starved wounded monolayers of NIH-3T3 cells were either left untreated or treated with 2 μM LPA with or without BB or CD as indicated. After 2 hr, coverslips were fixed, stained and the extent of MTOC reorientation determined. The level of random “reorientation” is ˜33%. F. The average positions of the MTOC and nucleus from the cells treated as in E were determined and plotted. G. Actin distribution (phallodin staining) in wound edge NIH-3T3 cells treated as indicated. Bar, G: 10 μm.
Cdc42 and MRCK activate nuclear movement to reorient the MTOC. A. Starved wound edge NIH-3T3 cells were injected with L61Cdc42, N17Cdc42 or Pak-CRIB domain proteins and then treated with 2 μM LPA for 2 hr. Cells were then fixed, stained and the positions of the nucleus and MTOC were determined. […] After expression (2 hr) cells were treated with 2 μM LPA for 2 hr, fixed, stained and the extent of MTOC reorientation determined. […] After expression (3 hr), cells were fixed, stained and the extent of MTOC reorientation was determined. D, E. Average nucleus and MTOC positions of cells from B and C were determined and plotted. […] Cells were fixed and stained and the percentage of expressing cells remaining at the wound edge determined. […]

[3] = tested on: starved wound edge NIH-3T3 cells; test: Determination of nucleus and MTOC position relative to the cell centroid; conditions: for effect on rearward nuclear movement induced by LPA / effect on the position of the MTOC: pre-treatment with 0.5 μM CD or 50 μM BB; for effect on rearward nuclear movement induced by LPA / effect on the position of the MTOC / effect on LPA-induced rearward nuclear movement: 2 μM LPA, 2 hr; for rearward nuclear movement in starved cells without LPA: microinjected protein or expressed DNA
Experimental: as §1, §2, §3

[4] = tested on: pSer19 MLC; test: Phospho-Ser19 MLC quantification; conditions: starved wound edge cells, injected, fixed 2.5 hr later
Experimental: Total cell extracts prepared in SDS sample buffer were analyzed by western blotting as described (38). For quantification of pSer19-MLC immunofluorescence, average cellular fluorescence intensity was determined with Metamorph software after subtracting background fluorescence (determined for an adjacent cell-free area). Data is from at least two independent experiments and error bars in plots are SEM.

[5] = tested on: starved wound edge NIH-3T3 cells; test: Migration of expressing wound edge cells after serum stimulation; conditions: DNA microinjection, serum for 12 h
Experimental: Cdc42 and MRCK activate nuclear movement to reorient the MTOC. A. Starved wound edge NIH-3T3 cells were injected with L61Cdc42, N17Cdc42 or Pak-CRIB domain proteins and then treated with 2 μM LPA for 2 hr. Cells were then fixed, stained and the positions of the nucleus and MTOC were determined. MTOC reorientation is indicated as YES (>60%); NO (<40%). B. Starved wound edge NIH-3T3 cells were injected with DNA encoding myc-hPAK1 (hPAK1(83-149)), HA-MRCK-TM or Flag-MRCK-CPC. After expression (2 hr) cells were treated with 2 μM LPA for 2 hr, fixed, stained and the extent of MTOC reorientation determined. C. Serum starved wound edge NIH-3T3 cells were injected with DNA encoding […] HA-L61Cdc42, HA-L61Cdc42 plus flag-MRCK-CPC or flag-MRCK-WT (MRCK-WT). After expression (3 hr), cells were fixed, stained and the extent of MTOC reorientation was determined. D, E. Average nucleus and MTOC positions of cells from B and C were determined and plotted. F. Representative images of cells microinjected with the indicated constructs and treated with LPA as indicated before fixing and staining. Arrows indicate cells with expressed protein (green), pericentrin and β-catenin (red) and DNA (blue). G. Actin (phalloidin staining) in a cell injected with MRCK-TM (arrow) and treated with LPA. […] Cells were fixed and stained and the percentage of expressing cells remaining at the wound edge determined. […]

[6] = 100 nM nocodazole with LPA for 2h
[7] = microinjected protein, antibody or expressed DNA construct, 2 μM LPA, 2 hr
[8] = microinjected protein, antibody or expressed DNA construct
[9] = co-expression with HA-L61Cdc42, 3 hr

With `Cc1ccc2c(c1)C(=O)C1(O)CCN(c3ccccc3)C1=N2` (stereo not drawn) [BB, blebbistatin, reference compound] the “effect on MTOC reorientation induced by LPA” value ([1]; 2 μM LPA, 2 hr) was “blocked”, the “effect on LPA-induced changes in the actin cytoskeleton” value (“effect on LPA-induced changes” for short) ([2]; CD or BB with 2 μM LPA) was “blocked” and the “effect on rearward nuclear movement induced by LPA” value [3] was “blocked”. The “effect on the position of the MTOC” value [3] was “without affecting”.

In the case of `C=C1[C@@H](C)[C@H]2[C@H](Cc3ccccc3)NC(=O)[C@]23[C@H](OC(C)=O)/C=C/[C@@](C)(O)C(=O)[C@@H](C)C/C=C/[C@H]3[C@@H]1O` [CD, cytochalasin D, reference compound], the “effect on MTOC reorientation” value ([1]; lower concentrations of CD (below 0.5 μM)) is reported as “had no effect”, the “effect on MTOC reorientation induced by LPA” value ([1]; 2 μM LPA, 2 hr) is reported as “blocked” and the “effect on LPA-induced changes” value ([2]; CD or BB with 2 μM LPA) is reported as “blocked”. For the same molecule, the “effect on rearward nuclear movement induced by LPA” value [3] was “blocked” and the “effect on the position of the MTOC” value [3] was “without affecting”.

`COC(=O)Nc1nc2ccc(C(=O)c3cccs3)cc2[nH]1` [nocodazole, reference compound] was tested, and the “effect on LPA-induced MTOC reorientation” value [1, 6] was “blocked MTOC reorientation”, the “MTOC position upon nocodazole wash out” value ([3]; 100 nM nocodazole washed out, medium with LPA for another 2h) was “the MTOC returned to the cell center” and the “effect on MTOC centration” value [3, 6] was “interfering with MTOC centration”. For the same molecule, the “effect on nuclear movement” value [3, 6] was “not with nuclear movement”.

For “L61Cdc42: constitutively active L61Cdc42 protein (microinjected) or HA-L61Cdc42 DNA”, the “pSer19 MLC immunofluorescence compared to noninjected cells” value [4] was “substantially increased”, the “MTOC reorientation in starved cells without LPA” value [1] was “resulted in MTOC reorientation” and the “rearward nuclear movement in starved cells without LPA” value ([3]; no other treatment) was “induced rearward nuclear movement”.

With “MRCK-TM: dominant negative full length MRCKa with K106A, H1579A and H1582A mutations” the “effect on LPA-induced MTOC reorientation” value [1, 7] was “blocked MTOC reorientation”, the “effect on cell migration (expressing cells remaining at the wound edge)” value [5] was “migration was inhibited” and the “effect on LPA-induced changes” value ([2]; cell injected with DNA construct, treated with LPA) was “did not have a major effect”. For the same molecule, the “effect on LPA-induced rearward nuclear movement” value [3, 8] was “blocking the rearward movement of the nucleus”.

With “N17Cdc42: dominant-negative N17Cdc42 protein” the “effect on LPA-induced rearward nuclear movement” value [3, 8] was “blocked”.

“wild type MRCK: wild type full length Rat MRCKa” was tested, and the “pSer19 MLC immunofluorescence compared to noninjected cells” value [4] was “increased”, the “MTOC reorientation in starved cells without LPA” value [1] was “induced” and the “effect on cell migration (expressing cells remaining at the wound edge)” value [5] was “no effect on cell migration”. The “position of the MTOC in starved cells without LPA” value ([3]; expressed DNA, no other treatment) was “maintaining the MTOC at the cell centroid” and the “rearward nuclear movement in starved cells without LPA” value ([3]; no other treatment) was “induced”.

B1: hpak1(83-149): N-terminal autoregulatory domain of Pak1, which inhibits Pak1 activity (protein, UniProt Q13153 83-149, looked up, fragment)
chain: HTIHVGFDAVTGEFTGMPEQWARLLQTSNITKSEQKKNPQAVLDVLEFYNSKKTSNSQKYMSFTDKS
modifications: myc tag
For B1, the “effect on LPA-induced MTOC reorientation” value [1, 7] was “still reoriented their MTOC” and the “effect on LPA-induced rearward nuclear movement” value [3, 8] was “moved their nuclei rearward”.

B2: MRCK-CPC: dominant negative truncated MRCKa, aa930-1492, lacks kinase domain and GTPase binding domain (protein, UniProt O54874 930-1492, looked up, fragment)
chain: QLIKDTEELRSEKGVEHRDSQHSFLAFLNTPTDALDQFERSPSCTPAGKGRRIADSAPLPVHTPTLRKKGCPASAGFPPKRKTHQFFVKSFTAPTKCHQCTSLMVGLIRQGCSCEVCGFSCHITCVNKAPTTCPVPPEQTKGPLGIDPQKGVGTAYEGHVRIPKPAGVKKGWQRALAVVCDFKLFLYDIAEGKASQPSSVISQVIDMRDEEFSVSSVLASDVIHASRKDIPCIFRVTASQLSAPSDKCSILMLADSETERSKWVGVLSELHKVLKKNKFRDRSVYVPKEAYDSTLPLIKTTQAAAIIDHERVALGNEEGLFVVHVTKDEIIRVGDNKKIHQIELIPSDQLVAVISGRNRHVRLFPMSALDGRETDFYKLAETKGCQTIAAGKVRHGALSCLCVAMKRQVLCYELFQSKTRHRKFKEIQVPCNVQWMAIFSEHLCVGFQSGFLRYPLNGEGSPCNMLHSNDHTLAFITHQPMDAICAVEISNKEYLLCFSSIGIYTDCQGRRSRQQELMWPANPSSCCYNAPYLSIYSENAVDIFDVNSMEWIQTLPLKKVRPL
modifications: Flag tag
In the case of B2, the “pSer19 MLC immunofluorescence compared to noninjected cells” value [4] is reported as “no effect”, the “effect on MTOC reorientation induced by L61Cdc42” value [1, 9] is reported as “inhibited” and the “effect on LPA-induced MTOC reorientation” value [1, 7] is reported as “blocked MTOC reorientation”. For the same molecule, the “effect on nuclear movement induced by L61Cdc42” value [3, 9] was “inhibited” and the “effect on LPA-induced rearward nuclear movement” value [3, 8] was “blocking the rearward movement of the nucleus”.

B3: Par6: full length mouse Par-6 in pFLAG CMV2 (protein, UniProt Q9Z101 1-346, looked up)
chain: MARPQRTPARSPDSIVEVKSKFDAEFRRFALPRTSVRGFQEFSRLLCVVHQIPGLDVLLGYTDAHGDLLPLTNDDSLHRALASGPPPLRLLVQKRAEGDSSGLAFASNSLQRRKKGLLLRPVAPLRTRPPLLISLPQDFRQVSSVIDVDLLPETHRRVRLHKHGSDRPLGFYIRDGMSVRVAPQGLERVPGIFISRLVRGGLAESTGLLAVSDEILEVNGIEVAGKTLDQVTDMMVANSHNLIVTVKPANQRNNVVRGASGRLTGPSSVGPGPTDPDSDDDSSDLVIENRHPPCSNGLSQGPLCWDLQPGCLLPGAGSSLPSLDSREQANSGWGNGMRGDVSGFSL
modifications: full-length Flag tag
notes: full length mouse Par-6 in pFLAG CMV2
In the case of B3, the “effect on LPA-induced MTOC reorientation” value [1, 7] is reported as “blocked”, the “effect on LPA-induced rearward nuclear movement” value [3, 8] is reported as “unaffected” and the “position of the MTOC relative to the cell centroid” value ([3]; microinjected protein, antibody or expressed DNA construct, LPA-treated (L61Cdc42 without LPA)) is reported as “displacement of the MTOC from its position at the centroid”.
